Assay results taken from the Kinase Knowledgebase extract (Sharma et al. 2016).

Target: CDK2 (UniProt P24941)

SMILES: O=C1c2ccccc2-c2n[nH]c3cccc1c23
- Kd: 3.2 µM
